# Assay results: US20020155117A1, “METHOD FOR DETECTING ORGAN ALLOGRAFT REJECTION AND USES THEREOF” (priority 1996, published 2002)
# Ends that are not written are not given here.
# Assays:
# Type in all cases: cell-based, human
# TCL LZ-anti-pp 21-42 = experiment: Proliferation assay of TCL LZ-anti-pp 21-42; design: stimulation of TCL anti-pp 21-42 by overlapping 14-mer peptides: dose or concentration left out as unconfirmed
# Protocol: (§1) FIGS. 1A and 1B. Reactivity of TCLs to the immunizing peptides and to r DR1 proteins. The TCL LZ-anti-pp 1-20 […] and TCL LZ-anti-pp 21-42 […] were tested for reactivity to various concentrations of rDR1 protein and pp 1-20 pr pp 21-42 using 2×10^4 responding cells and 5×10^4 irradiated autologous APCs per well. Cultures were labeled after 48 hours and harvested 18 hours later. Results are expressed as mean cpm of triplicate cultures. The standard deviation of measure was less than 10%.
# (§2) FIGS. 2A and 2B. HLA-DR restriction of peptide recognition by TCLs. The TCL LZ-anti-pp 1-20 (FIG. 2A) and TCL LZ-anti-pp 21-42 (FIG. 2B) were stimulated with […] peptide (pp 1-20 for LZ-anti-pp 1-20 and pp 21-42 for LZ-anti-pp 21-42) in the presence of autologous and allogeneic APCs sharing with the responder one or no DR antigen. Assays were done as described in the description of FIGS. 1A and 1B.
# FIG. 3. Determination of the core epitope of the dominant determinant of DR1 molecule. TCL LZ-anti-pp 21-42 was stimulated in individual cultures with nine overlapping 14-mer peptides ([…]) moving along residues 21-42 in single residue steps. The reactions were set up as described in the description of FIGS. 1A and 1B.
# FIG. 4. Suppression of TCL reactivity by high concentrations of antigen. The proliferative response of TCL LZ-anti-pp 21-42 was tested as described in the description of FIGS. 1A and 1B using different concentrations of pp 22-35. The response was abolished at a concentration […].
# (§3) T cells were grown in 24 well plates (Nunc, Inc., Naperville, Ill.) in RPM1 1640 medium supplemented with 10% human AB serum, […] L-glutamine, and 50 μg/ml gentamicin (Gibco, Grand Island, N.Y.). On day 10, rIL-2 was added at 5 μ/ml. Fourteen days after priming, T cells were collected, washed and restimulated at 10^6/ml with antigen, in culture medium containing rIL-2 (20 u/ml) and irradiated (3000 rad) autologous PBMCs (2×10^6/ml). Following three stimulations, two TCLs, named LZ-anti-pp1-20 and LZ-anti-pp21-42, were obtained.
# (§4) Responding T cells (2×10^4/well) were cultured with irradiated APCs of responder or stimulator origin (5×10^4/well) in round bottom microtiter plates (Nunc Inc., Naperville, Ill.). Antigens were added to the cultures at the concentrations indicated. [^3H] thymidine (1 μCi/well) was added after 48 hours, and the cultures were harvested 18 hours later. [^3H] thymidine incorporation was measured in an LK Betaplate liquid scintillation counter (Wallace, Inc., Gaithersburg, Md.). Mean cpm in triplicate cultures and standard deviation of the mean were calculated.
# The immune response of mature T cells can paradoxically be suppressed by high doses of antigen (Suzuki et al., 1988; and Critchfield et al, 1994). The possibility of suppressing indirect allorecognition was explored by testing the reactivity of TCL LZ-anti-pp 21-42 to increasing concentrations of pp 22-35 in the presence of autologous APC. The reactivity of the line started to decline when the concentration of the peptide was increased above 3 μM (FIG. 4).
# (§5) T cells cultured with 27 μM of pp 22-35 lost viability (>90% Preputium iodide positive) within 72 hours, while T cells grown with high concentration of the irrelevant peptide alone were unaffected
# [1] = test system: IL-2 expanded PBMCs of DR11 positive heart allograft recipients; experiment: Limiting dilution analysis (LDA) of Th frequency in the periphery, Example 1; conditions: for T helper cell frequency, circulation: + self PBMC
# Protocol: FIG. 6. Suppression of in vivo activated T cells by high doses of antigen. PBMCs obtained from patient […] on day 55 were expanded in IL-2 for 14 days and then tested in LDA (limiting dilution analysis) for reactivity to pp 22-35 at concentrations of […] in the presence of autologous APCs.
# The LDA study of Th frequency in the periphery was performed using the method described by Zhang et al. (Zhang et al., 1994) with some modifications. PBMCs were plated at 2×10^4, 1×10^4 and 5×10^3 cells per well (24 wells for each concentration) in 0.1 ml medium containing 40 U/ml of rIL-2. On day 7, 0.1 ml fresh medium with rIL-2 was added to each well. After 14 days, each culture was split into 3 aliquots: one was cultured with autologous (patient) irradiated PBMC (5×10^4/well), the second with autologous PBMC plus pp 22-35, and the third with donor spleen cells (5×10^4/well). The cultures were pulsed with [^3H] thymidine ([…]) after 48 hours and harvested 18 hours later.
# To establish whether the reactivity of in vivo activated T cells to peptide 22-35 can be suppressed by high concentrations of antigen the following experiment was performed: PBMC from […] were cultured for 14 days at different cell concentrations in medium with IL-2. Cultures were then tested in the presence of autologous APCs for reactivity to pp 22-35 at concentrations of 1 μM and 15 μM. At 1 μM of antigen there were 8×10^−6 reactive T cells while at 15 μM there was no reactivity (FIG. 6).
# [2] = test system: T cells infiltrating the graft; experiment: Limiting dilution analysis of Th frequency among lymphocytes infiltrating the graft, Example 1; conditions: patient three, + self PBMC
# From the text: Biopsy tissue was washed twice with medium supplemented with 5 u/ml rIL-2. Cell growth was checked everyday. The medium was changed twice a week. T cells infiltrating the graft were further expanded in medium with rIL-2 for 7-14 days. When the cell number reached 1×10^6, they were harvested and plated at 400, 200 and 100 cells per well in the presence of autologous PBMC (5×10^4/per well) in 24 replicate cultures. Cultures were maintained and assayed for reactivity as described above. The precursor frequency of Th cells recognizing pp 22-35 and donor spleen cells was analyzed by Poisson statistics (Liu et al., 1992; and Zhang et al., 1994).
# [3] = test system: PBMC from a responder (LZ), expressing HLA-DR β1*1101/1201; experiment: In vitro immunization of PBMC from responder LZ with DR1 peptides (blastogenesis with autologous APCs); conditions: peptide 5 μg/ml
# Protocol: Development of Allo-peptide Specific T Cell Lines for Epitope Mapping. PBMCs (at 10^6/ml) from a healthy person ([…]) with HLA-DRβ1*1101/1201 genotype were primed in individual cultures (Liu et al., 1992) with each or the following seven DR1 peptides(5 μg/ml) spanning the first domain of the Drβ1*0101 chain:
# as §3
# To monitor indirect recognition in allograft recipients, a determination was made as to whether T cell recognize one or more peptides resulting from the processing of an allogeneic MHC molecule by responder APCs. For this, in vitro PBMC were immunized from a responder (LZ), expressing HLA-DR β1*1101/1201, with seven partially overlapping peptides corresponding to the first domain of the Drβ1*0101 molecule. […] The resulting T cell lines were tested for their ability to recognize native rDR1 molecule at various protein concentrations.
# TCL LZ-anti-pp 1-20 = experiment: Proliferation assay of TCL LZ-anti-pp 1-20
# Protocol: as §1
# as §2, with “1B. […]” for “1B.”
# as §4, with “Antigens were added to the cultures at the concentrations indicated. [^3H] thymidine (1 μCi/well) was added after 48 hours, and the cultures were harvested 18 hours later.” left out
# [4] = test system: TCL LZ-anti-pp 21-42 T cells; experiment: Viability of T cells cultured with high peptide concentration (Preputium iodide); conditions: high concentration of the irrelevant peptide alone
# Protocol: as §5
# TCL-PR = experiment: Proliferative response of TCL-PR to DR4 peptide
# From the text: The identification of the core epitope of the DR4/69-88 peptide has been accomplished. […] The peptide KRAAVDTYCRHNYG carries the expected anchor residues required by the peptide binding motif of the DTRβ1*1101 restriction molecule (i+7) as well as the TCR contact residues involved in the stimulation of TCL-PR.
# The objective of these studies is to establish whether high doses of dominant peptide are tolerogenic. To increase resistance against enzymatic degradation D-Lysine is placed at the N-terminus and the C-terminus is amidated. We have established that the optimal dose of the dominant peptide (4/71-84) required for inducing maximal proliferation of TCR-PR is 5 μg/ml or approximately 5×10^−7M. Increasing concentration of peptide 4/71-84 (ranging from 10^−8 to 10^−4M) may be used to determine the dose required to reduce proliferation to the background values observed in cultures with APCs and no peptide. The viability of the cells will be assayed and physiological studies will be performed to determine whether the lack of proliferation results from the induction of enery of apoptosis.
substance,measurement,setting,value
"ERVRLLERCIYNQE [pp 22-35, ERVRLLERCIYNQE]",peptide concentration at which the proliferative response was abolished,TCL LZ-anti-pp 21-42; FIG. 4 legend,27 µM
same,peptide concentration above which reactivity of the line started to decline,"TCL LZ-anti-pp 21-42; autologous APC, FIG. 4",above 3 μM
same,peptide concentration for complete suppression of TCL reactivity,"TCL LZ-anti-pp 21-42; autologous APC, FIG. 4",27 µM
same,stimulation of TCL anti-pp 21-42 by overlapping 14-mer peptides,"TCL LZ-anti-pp 21-42; autologous APCs, FIG. 3",stimulated strongly
same,TCL-ZL response to pp 22-35,TCL LZ-anti-pp 21-42; pp 22-35,17×10^3 cpm
same,reactive T cells in LDA at low antigen concentration,"[1]; patient PBMC (day 55), 1 μM of antigen, autologous APCs, FIG. 6",8×10^−6
same,reactive T cells in LDA at high antigen concentration,"[1]; patient PBMC (day 55), 15 μM of antigen, autologous APCs, FIG. 6",no reactivity
same,"T helper cell frequency, circulation","[1]; patient one, 1 Mo after transplantation",0
same,"T helper cell frequency, circulation","[1]; patient one, 12 Mo after transplantation (chronic rejection)",6×10^−6
same,"T helper cell frequency, circulation","[1]; patient one, 12 Mo after transplantation (chronic rejection), listed as pp22-35",6.0 × 10^−6
same,"T helper cell frequency, circulation","[1]; patient three, 27 d after transplantation",0
same,"T helper cell frequency, circulation","[1]; patient three, 41 d after transplantation",7.4×10^−6
same,"T helper cell frequency, circulation","[1]; patient three, 41 d after transplantation, listed as pp22-35",7.4 × 10^−6
same,"T helper cell frequency, circulation","[1]; patient three, 55 d after transplantation (acute rejection), listed as pp22-35",8.0 × 10^−6
same,"T helper cell frequency, circulation","[1]; patient three, 55 d after transplantation (acute rejection), listed as pp-22-35",8×10^−6
same,"T helper cell frequency, circulation","[1]; patient three, 82 d after transplantation (acute rejection), listed as pp22-35",6.5 × 10^−6
same,"T helper cell frequency, circulation","[1]; patient three, 82 d after transplantation (acute rejection), listed as pp-22-35",6.5e-06
same,"T helper cell frequency, circulation","[1]; patient two, 12 Mo after transplantation",failed to react
same,"T helper cell frequency, circulation","[1]; patient two, 12 Mo after transplantation, listed as pp22-35",0
same,"T helper cell frequency, graft",[2]; 55 d biopsy,4.3×10^−4
same,"T helper cell frequency, graft","[2]; 55 d biopsy, listed as pp22-35",4.3 × 10^−4
same,"T helper cell frequency, graft",[2]; 82 d biopsy,3.3×10^−4
same,"T helper cell frequency, graft","[2]; 82 d biopsy, listed as pp22-35",3.3 × 10^−4
"GDTRPRFLWQLKFECHFFNG (GDTRPRFLWQLKFECHFFNG) [pp 1-20, residues 1-20 of Drβ1*0101 chain]",blastogenesis after in vitro immunization of PBMC,[3],elicited blastogenesis
same,reactivity of TCL LZ-anti-pp 1-20,"TCL LZ-anti-pp 1-20; autologous APCs, various concentrations, FIG. 1",stimulated strongly
same,HLA-DR restriction of peptide recognition by TCL anti-pp 1-20,"TCL LZ-anti-pp 1-20; autologous and allogeneic APCs, FIG. 2A",only when presented by APCs carrying the Drβ1*1101 allele
"K G N N D E S N I S F K E K D (KGNNDESNISFKEKD) [NDA4-derived peptide, irrelevant synthetic peptide corresponding to the N-terminus of the NDA4 molecule, reference compound]",TCL-ZL response to pp 22-35 in the presence of irrelevant peptide,TCL LZ-anti-pp 21-42; pp 22-35 at plus NDA4-derived peptide at 30-50 μM,15-17×10^3 cpm
same,viability of T cells grown with peptide alone,[4],unaffected
K R A A V D T Y C R H N Y G (KRAAVDTYCRHNYG) [4/71-84],optimal dose required for inducing maximal proliferation of TCR-PR,TCL-PR,5 μg/ml and approximately 5×10^−7 M
same,potency in stimulating the proliferative response of TCL-PR (core epitope of DR4/69-88),TCL-PR,most potent
"TERVRLLERCIYNQEESVREDS (TERVRLLERCIYNQEESVREDS) [pp 21-42, residues 21-42 of Drβ1*0101 chain]",blastogenesis after in vitro immunization of PBMC,[3],elicited blastogenesis
same,reactivity of TCL LZ-anti-pp 21-42,"TCL LZ-anti-pp 21-42; autologous APCs, various concentrations, FIG. 1B",reacted vigorously
same,HLA-DR restriction of peptide recognition by TCL anti-pp 21-42,"TCL LZ-anti-pp 21-42; autologous and allogeneic APCs, FIG. 2B",only when presented by APCs carrying the Drβ1*1101 allele
